Laboratory results taken from ChEMBL document CHEMBL1201862, “PubChem BioAssay data set” (2004).
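Method: 48-hour compound exposure of cells in 96-well plates, five concentrations, linear interpolation of endpoints. GI50: concentration for 50% inhibition of growth.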 Active and inactive are the calls of the source. Rule as the data show it: active = GI50 up to about 1.1 µM and inactive = higher.

Experiments:
Assay in all cases: NCI-60 cell line screen, 48 h
[1] = test system: A498
[2] = test system: A549
[3] = test system: CAKI-1
[4] = test system: HCT-116
[5] = test system: HOP-92
[6] = test system: Hs-578T
[7] = test system: IGROV-1
[8] = test system: K562
[9] = test system: NCI-H226
[10] = test system: NCI-H23
[11] = test system: OVCAR-3
[12] = test system: OVCAR-8
[13] = test system: SF-539
[14] = test system: SK-MEL-5
[15] = test system: SK-OV-3
[16] = test system: SN12C
[17] = test system: SNB-19
[18] = test system: SNB-75
[19] = test system: UACC-257
[20] = test system: T47D

| Structure (SMILES) | GI50 [1] | GI50 [2] | GI50 [3] | GI50 [4] | GI50 [5] | GI50 [6] | GI50 [7] | GI50 [8] | GI50 [9] | GI50 [10] | GI50 [11] | GI50 [12] | GI50 [13] | GI50 [14] | GI50 [15] | GI50 [16] | GI50 [17] | GI50 [18] | GI50 [19] | GI50 [20] |
| --- | --- | --- | --- | --- | --- | --- | --- | --- | --- | --- | --- | --- | --- | --- | --- | --- | --- | --- | --- | --- |
| COC(=O)[C@H](CCSC)NC(=O)N[C@H](C)c1ccccc1 | > 100 µM (inactive) | > 100 µM (inactive) | > 100 µM (inactive) | > 100 µM (inactive) | 43.5 µM (inactive) | > 100 µM (inactive) | > 100 µM (inactive) | > 100 µM (inactive) | > 100 µM (inactive) | > 100 µM (inactive) | > 100 µM (inactive) | > 100 µM (inactive) | > 100 µM (inactive) | > 100 µM (inactive) | > 100 µM (inactive) | > 100 µM (inactive) | > 100 µM (inactive) | > 100 µM (inactive) | 86.7 µM (inactive) | – |
| C=C1c2c(n(S(=O)(=O)c3ccccc3)c3ccccc23)[C@@]2(C(=O)OC)CC3C=CC2N1C3 | – | > 100 µM (inactive) | > 100 µM (inactive) | > 100 µM (inactive) | > 100 µM (inactive) | – | > 100 µM (inactive) | > 100 µM (inactive) | > 100 µM (inactive) | > 100 µM (inactive) | > 100 µM (inactive) | > 100 µM (inactive) | > 100 µM (inactive) | – | > 100 µM (inactive) | > 100 µM (inactive) | > 100 µM (inactive) | > 100 µM (inactive) | > 100 µM (inactive) | > 100 µM (inactive) |
| O=C1N/N=C\c2ccc(cc2)OCc2cccc(n2)COc2ccc(cc2)/C=N\NC1=O | > 25 µM (inactive) | > 25 µM (inactive) | – | > 25 µM (inactive) | > 25 µM (inactive) | 13.6 µM (inactive) | > 25 µM (inactive) | > 25 µM (inactive) | > 25 µM (inactive) | > 25 µM (inactive) | > 25 µM (inactive) | > 25 µM (inactive) | > 25 µM (inactive) | – | > 25 µM (inactive) | > 25 µM (inactive) | > 25 µM (inactive) | 14.6 µM (inactive) | > 25 µM (inactive) | – |
| COc1ccccc1N=C(S)Nc1ccccn1 | > 100 µM (inactive) | > 100 µM (inactive) | > 100 µM (inactive) | > 100 µM (inactive) | – | 84.7 µM (inactive) | > 100 µM (inactive) | > 100 µM (inactive) | > 100 µM (inactive) | – | > 100 µM (inactive) | 99.8 µM (inactive) | 67.9 µM (inactive) | > 100 µM (inactive) | > 100 µM (inactive) | – | 73.8 µM (inactive) | 36.7 µM (inactive) | > 100 µM (inactive) | – |
| COc1ccc(NC(=O)/C(CC2=Nc3ccc([N+](=O)[O-])cc3NC2O)=N\NC(=O)C[N+](C)(C)C)c(OC)c1 (stereo not given) | – | 40.5 µM (inactive) | > 100 µM (inactive) | 30.4 µM (inactive) | 72.3 µM (inactive) | > 100 µM (inactive) | 80.7 µM (inactive) | – | > 100 µM (inactive) | 84.3 µM (inactive) | > 100 µM (inactive) | 30.1 µM (inactive) | 26.5 µM (inactive) | 22.2 µM (inactive) | 89.9 µM (inactive) | 61 µM (inactive) | > 100 µM (inactive) | > 100 µM (inactive) | > 100 µM (inactive) | – |
| C=CC(Cl)(CBr)CCC(Br)=C(C)C (stereo not given) | > 100 µM (inactive) | 43.6 µM (inactive) | 9.31 µM (inactive) | 23.6 µM (inactive) | 16.9 µM (inactive) | 28.2 µM (inactive) | 12.1 µM (inactive) | 31.2 µM (inactive) | 44.8 µM (inactive) | 25.9 µM (inactive) | 24.5 µM (inactive) | 24.9 µM (inactive) | 21.4 µM (inactive) | 17.1 µM (inactive) | – | 16.9 µM (inactive) | 34.5 µM (inactive) | 41.5 µM (inactive) | 25.8 µM (inactive) | – |
| CCOC(=O)N(CC)c1c(C(F)(F)F)cc(-c2ccccc2)[nH]c1=O | 50.7 µM (inactive) | 45.3 µM (inactive) | > 100 µM (inactive) | 48.5 µM (inactive) | 50.7 µM (inactive) | – | 47.2 µM (inactive) | 23.1 µM (inactive) | > 100 µM (inactive) | 52.2 µM (inactive) | 37.1 µM (inactive) | 49.4 µM (inactive) | – | 41.7 µM (inactive) | 92 µM (inactive) | 48.6 µM (inactive) | > 100 µM (inactive) | – | 48.3 µM (inactive) | 32.7 µM (inactive) |
| CC1=C/C(=N\NS(=O)(=O)c2ccc([N+](=O)[O-])cc2)CC(C)(C)C1 | > 100 µM (inactive) | 48.8 µM (inactive) | > 100 µM (inactive) | 84.3 µM (inactive) | 10.4 µM (inactive) | – | 57.5 µM (inactive) | 62.1 µM (inactive) | – | 92.9 µM (inactive) | > 100 µM (inactive) | > 100 µM (inactive) | > 100 µM (inactive) | 66.1 µM (inactive) | > 100 µM (inactive) | 73.5 µM (inactive) | 69 µM (inactive) | – | 80.5 µM (inactive) | > 100 µM (inactive) |
| CSCCCNC(=O)[C@H](CSC)NC(=O)c1csc(CCNC(=O)[C@@H](NSc2ccccc2[N+](=O)[O-])C(C)O)n1 (stereo not given in full) | > 100 µM (inactive) | > 100 µM (inactive) | > 100 µM (inactive) | > 100 µM (inactive) | > 100 µM (inactive) | > 100 µM (inactive) | > 100 µM (inactive) | > 100 µM (inactive) | > 100 µM (inactive) | > 100 µM (inactive) | > 100 µM (inactive) | > 100 µM (inactive) | > 100 µM (inactive) | > 100 µM (inactive) | > 100 µM (inactive) | > 100 µM (inactive) | > 100 µM (inactive) | 28.2 µM (inactive) | > 100 µM (inactive) | – |
| Cc1cc(Cl)nc(Nc2nc3ccccc3[nH]2)n1 | > 100 µM (inactive) | > 100 µM (inactive) | – | > 100 µM (inactive) | 21.8 µM (inactive) | 40.1 µM (inactive) | > 100 µM (inactive) | > 100 µM (inactive) | > 100 µM (inactive) | > 100 µM (inactive) | > 100 µM (inactive) | > 100 µM (inactive) | > 100 µM (inactive) | > 100 µM (inactive) | > 100 µM (inactive) | > 100 µM (inactive) | > 100 µM (inactive) | > 100 µM (inactive) | > 100 µM (inactive) | – |
| COc1cc2c(c(OC)c1OC)-c1ccc(SC)cc1C(O)CC2 (stereo not given) | 12.1 µM (inactive) | < 0.01 µM (active) | 0.071 µM (active) | < 0.01 µM (active) | > 100 µM (inactive) | – | < 0.01 µM (active) | < 0.01 µM (active) | – | < 0.01 µM (active) | < 0.01 µM (active) | – | < 0.01 µM (active) | < 0.01 µM (active) | – | 0.427 µM (active) | < 0.01 µM (active) | < 0.01 µM (active) | – | > 100 µM (inactive) |
| CCCCC1(NN=C2CCCCC2)C(=O)N(c2ccccc2)N(c2ccccc2)C1=O | – | > 100 µM (inactive) | > 100 µM (inactive) | > 100 µM (inactive) | – | > 100 µM (inactive) | > 100 µM (inactive) | 30 µM (inactive) | – | > 100 µM (inactive) | > 100 µM (inactive) | > 100 µM (inactive) | > 100 µM (inactive) | > 100 µM (inactive) | > 100 µM (inactive) | > 100 µM (inactive) | > 100 µM (inactive) | > 100 µM (inactive) | > 100 µM (inactive) | > 100 µM (inactive) |
| COc1cc(C2C3C=CC=C4CC=CC(=C43)C3CCC(=O)N32)cc(OC)c1OC (stereo not given) | > 100 µM (inactive) | 99.1 µM (inactive) | – | 94.8 µM (inactive) | 85.9 µM (inactive) | – | 68.4 µM (inactive) | > 100 µM (inactive) | 0.224 µM (active) | – | > 100 µM (inactive) | > 100 µM (inactive) | > 100 µM (inactive) | – | 64 µM (inactive) | > 100 µM (inactive) | > 100 µM (inactive) | > 100 µM (inactive) | > 100 µM (inactive) | 36.1 µM (inactive) |
| CC(C)(C)OC(=O)CN1C(=O)CC1CC(=O)c1ccccc1 (stereo not given) | 27.4 µM (inactive) | > 100 µM (inactive) | 22.4 µM (inactive) | 24.8 µM (inactive) | 37.4 µM (inactive) | 26.1 µM (inactive) | 18.3 µM (inactive) | 4.14 µM (inactive) | 25.1 µM (inactive) | 18.5 µM (inactive) | 18.4 µM (inactive) | 17.3 µM (inactive) | 19.4 µM (inactive) | 18.2 µM (inactive) | – | 23.2 µM (inactive) | 19.8 µM (inactive) | – | 18.2 µM (inactive) | – |
| COC(=O)C1Cc2c(n(C)c3ccccc23)C(CCC(=O)O)N1Cc1ccccc1 (stereo not given) | 15.2 µM (inactive) | 31 µM (inactive) | 37.2 µM (inactive) | 21.2 µM (inactive) | 23.6 µM (inactive) | – | 40.6 µM (inactive) | 37 µM (inactive) | 21.7 µM (inactive) | 26.4 µM (inactive) | 21.1 µM (inactive) | 39.4 µM (inactive) | 22.4 µM (inactive) | 27.3 µM (inactive) | 36.5 µM (inactive) | 38.5 µM (inactive) | 33.2 µM (inactive) | 32.5 µM (inactive) | 43.2 µM (inactive) | – |
| CC(C)NC(=O)OCc1c(COC(=O)NC(C)C)c(-c2cc[n+](COC(=O)CC(C)(C)C)cc2)n2c1CCC2 | > 100 µM (inactive) | > 100 µM (inactive) | > 100 µM (inactive) | – | > 100 µM (inactive) | > 100 µM (inactive) | > 100 µM (inactive) | > 100 µM (inactive) | > 100 µM (inactive) | > 100 µM (inactive) | > 100 µM (inactive) | > 100 µM (inactive) | > 100 µM (inactive) | > 100 µM (inactive) | > 100 µM (inactive) | > 100 µM (inactive) | > 100 µM (inactive) | – | > 100 µM (inactive) | – |
